Source: patent US6603057B1, “Heterogenous and homogeneous mouse variants lacking sno gene” (Japan Science and Technology Corporation, priority 1999, dated 2003)

Tested on: wild type and sno^+/− mice
Assay: Tumor susceptibility: survival after weekly carcinogen DMBA treatment
Type: in vivo, mouse
Conditions: DMBA weekly to dorsal surface, observation period of 80 days
Method: In the next experiment, in order to compare the tumor susceptibility of wild type and sno^+/− mice, the carcinogen 9,10-dimethyl-1,2-benzanthracene (DMBA) was administered every week. […] The major tumor type observed was malignant lymphomas, and fibromas were also found at a lower frequency. Lymphomas in sno^+/− mice were aggressive metastatic malignancies, and generated tumors in the thymus glands [refer to FIGS. 4(b) and (c)]. The fact that these originated from T-cells is due to the tumor cells homogeneously expressing the TCRαβ markers, but not the IgM marker [refer to FIGS. 4(d) and (e)].
DMBA treatments were initiated from the beginning at postnatal day 2-5 and continuing weekly thereafter by administering 50 μl of a solution containing DMBA 1.25 mg per ml acetone to the dorsal surface. Mice were monitored regularly and killed when overall health condition was deteriorated.
At first, 8-10 mice in each cohort were used for collecting histopathological informations, subsequently, the site of tumor and the site of metastatic organ were detected and specified by detailed pathological analysis.

Cc1c2ccccc2c(C)c2c1ccc1ccccc12 [DMBA, 9,10-dimethyl-1,2-benzanthracene]
survived this treatment (sno^+/− female mice (n=20)): 30% | survived this treatment (sno^+/− male mice (n=20)): 50% | survival under this treatment (wild-type mice (n=40)): most of the wild-type mice (n=40) survived
